Experimental data: patent US9216964B2, “Hedgehog pathway modulators” (Novartis AG, priority 2008, dated 2015)
Where two headings read alike, the source gives them in different places.

Test system: hedgehog signaling pathway
Experiment: Gli-Luc Reporter Assay for Hh Pathway Inhibition (TMHh-12 cells, pTA-8×Gli-Luc reporter)
Assay type: cell-based, Mouse
Details: Mus musculus
Procedure: Compounds of the present invention are assayed to evaluate their capacity to inhibit the hedgehog signaling pathway.
Gli-Luc Reporter Assay for Hh Pathway Inhibition
Mouse TM3 cells (obtained from American Type Culture Collection, ATCC, Manassas, Va.) are cultured in DMEM/F12 medium (Gibco/Invitrogen, Carlsbad, Calif.) supplemented with 5% heat inactivated horse serum and 2.5% FBS (Gibco/Invitrogen, Carlsbad, Calif.), 50 unit/mL penicillin and 50 μg/mL of streptomycin (Gibco/Invitrogen, Carlsbad, Calif.) at […] with 5% CO2 in air atmosphere. TM3 cells were transfected with pTA-8×Gli-Luc reporter plasmid. A stably transfected clone termed TMHh-12 was selected. […] To evaluate the IC50s of the antagonists, 8000 TMHh-12 cells were plated into each wells in 384-well plates with 50% DMEM/F12 medium supplemented with 2% FBS. After 12 hours, Hh pathway is activated by adding recombinant mouse Shh protein (expressed in E. coli, 8 μg/mL) or by adding Smo agonists. The testing compounds are added into plates with different concentrations. After 48 hours, the firefly luciferase luciferase activities are assayed with the Bright-Glo™ Luciferase Assay System (Promega, Madison, Wis.). The IC50 is measured when the effect of the compound reduces the luminescence signal by 50%. Toxicity of these compounds are evaluated in TM3 cells using CellTiter Glo assays or by TM3-Luc cell line (a TM3 cell stably transfected with a constitutive luciferase expression vector).

[1] = TMHh12, enzymatic and cellular assays for the inhibition of hedgehog signaling pathways, read-out: IC50 Ranges
[2] = TMHh12, Ag1.5 1 nM, read-out: Hedgehog Inhibition IC50 (nM) (Ag1.5 1 nM)

| SMILES | IC50 [1] [nM] | IC50 [2] [nM] |
| --- | --- | --- |
| C[C@@H](C(=O)O)N1CCc2c(cccc2Nc2ccc(Cl)c(-c3nc(-c4ccccc4)c[nH]3)c2)C1 [Compound 79] | 1 to 10 | – |
| CC1(N2CCc3c(cccc3Nc3ccc(Cl)c(-c4ncc(-c5ccccc5)[nH]4)c3)C2)CC1 [Compound 80] | 1 to 10 | – |
| Cc1ccc(Nc2cccc3c2CCN(C[C@H](O)CO)C3=O)cc1-c1nc2ccccc2[nH]1 [Compound 81] | 10 to 100 | – |
| Clc1ccc(Nc2cccc3c2CCN(C2CC2)C3)cc1-c1ncc(-c2ccccc2)[nH]1 [Compound 82] | 0.001 to 1 | – |
| O=C(O)C(=O)N1CCc2c(cccc2Nc2ccc(Cl)c(-c3ncc(-c4ccccc4)[nH]3)c2)C1 [Compound 83] | 10 to 100 | – |
| OCC1(N2CCc3c(cccc3Nc3ccc(Cl)c(-c4ncc(-c5ccccc5)[nH]4)c3)C2)CC1 [Compound 84] | 0.001 to 1 | – |
| Cc1ccc(Nc2cccc3c2CCN(CC(F)(F)CO)C3)cc1-c1nc2ccccc2[nH]1 [Compound 85] | 0.001 to 1 | – |
| Clc1ccc(Nc2cccc3c2CCN(Cc2nn[nH]n2)C3)cc1-c1ncc(-c2ccccc2)[nH]1 [Compound 86] | 1 to 10 | – |
| Clc1ccc(Nc2cccc3c2CCN(c2nn[nH]n2)C3)cc1-c1ncc(-c2ccccc2)[nH]1 [Compound 87] | 1 to 10 | – |
| O=C1c2cccc(Nc3ccc(Cl)c(-c4ncc(-c5ccccc5)[nH]4)c3)c2CCN1C1(CO)CC1 [Compound 88] | 0.001 to 1 | – |
| Cc1ccc(Nc2cccc3c2CCN(C2(CO)CC2)C3)cc1-c1nc2ccccc2[nH]1 [Compound 89] | 1 to 10 | – |
| Cc1c(Nc2cccc3c2CCN(S(C)(=O)=O)C3)cccc1-c1ccc(C#N)cc1 [Compound 90] | 100 to 1000 | 490 |
| Cc1ccc(-c2cnc(-c3cc(Nc4cccc5c4CCN(S(C)(=O)=O)C5)ccc3C)[nH]2)cn1 [Compound 91] | 1 to 10 | – |
| OC[C@@H](O)CN1CCc2c(cccc2Nc2ccc(Cl)c(-c3ncc(-c4ccccc4)[nH]3)c2)C1 [Compound 93] | 1 to 10 | – |
| CNc1ncc2nc(-c3cc(Nc4cccc5c4CCN(S(C)(=O)=O)C5)ccc3C)sc2n1 [Compound 94] | 10 to 100 | – |
| CC1(CN2CCc3c(cccc3Nc3ccc(Cl)c(-c4ncc(-c5ccccc5)[nH]4)c3)C2)CC1 [Compound 95] | 0.001 to 1 | – |
| CS(=O)(=O)N1CCc2c(cccc2Nc2ccc(Cl)c(-c3nc(-c4ccccc4)co3)c2)C1 [Compound 96] | 100 to 1000 | 263 |
| Cc1ccc(Nc2cccc3c2CCN(CC2(C)CC2)C3)cc1-c1nc2ccccc2[nH]1 [Compound 97] | 1 to 10 | – |
| COc1ccc(-c2cc(Nc3cccc4c3CCN(S(C)(=O)=O)C4)ccc2C)cn1 [Compound 98] | 10 to 100 | – |
| COc1ccc(-c2cc(Nc3cccc4c3CCN(S(C)(=O)=O)C4)ccc2C)cc1 [Compound 99] | 10 to 100 | – |
| COc1ccc(-c2cnc(-c3cc(Nc4cccc5c4CCN(S(C)(=O)=O)C5)ccc3C)[nH]2)cn1 [Compound 100] | 0.001 to 1 | – |
| Cc1ccc(Nc2cccc3c2CCN(S(C)(=O)=O)C3)cc1-c1ncc(-c2ccc(C#N)cc2)[nH]1 [Compound 101] | 0.001 to 1 | – |

| SMILES | IC50 [1] [nM] | IC50 [2] [nM] |
| --- | --- | --- |
| Cc1ccc(Nc2cccc3c2CCN(S(C)(=O)=O)C3)cc1-c1ccc(C#N)cc1 [Compound 102] | 1 to 10 | – |
| Cc1ccc(Nc2cccc3c2CCN(S(C)(=O)=O)C3)cc1-c1nc2cnc(N(C)C)cc2[nH]1 [Compound 103] | 10 to 100 | 59 |
| COc1cccc(-c2cnc(-c3cc(Nc4cccc5c4CCN(S(C)(=O)=O)C5)ccc3C)[nH]2)n1 [Compound 104] | 0.001 to 1 | – |
| Cc1ccc(Nc2cccc3c2CCN(S(C)(=O)=O)C3)cc1-c1nc2ccccc2o1 [Compound 105] | 1 to 10 | – |
| Cc1ccc(Nc2cccc3c2CCN(S(C)(=O)=O)C3)cc1-c1ncc(-c2ccc(CN(C)C)cc2)[nH]1 [Compound 106] | 1 to 10 | – |
| Cc1ccc(Nc2cccc3c2CCN(S(C)(=O)=O)C3)cc1-c1ncc(-c2cnc(N(C)C)nc2)[nH]1 [Compound 107] | 1 to 10 | – |
| Cc1ccc(Nc2cccc3c2CCN(S(C)(=O)=O)C3)cc1-c1ccc(CN(C)C)cc1 [Compound 108] | 100 to 1000 | – |
| Cc1ccc(Nc2cccc3c2CCN(S(C)(=O)=O)C3)cc1-c1ccc(-c2ccccc2)cc1 [Compound 109] | 100 to 1000 | – |
| COc1cc2[nH]c(-c3cc(Nc4cccc5c4CCN(S(C)(=O)=O)C5)ccc3C)nc2cn1 [Compound 110] | 10 to 100 | – |
| Cc1ncc(Nc2cccc3c2CCN(S(C)(=O)=O)C3)cc1-c1nc2ccccc2[nH]1 [Compound 111] | 1 to 10 | – |
| Cc1ccc(Nc2cccc3c2CCN(CC(F)(F)CO)C3)cc1-c1ccc(C#N)cc1 [Compound 112] | 10 to 100 | – |
| Cc1ccc(Nc2cccc3c2CCN(S(C)(=O)=O)C3)cc1-c1ccc(C(C)(C)C)cc1 [Compound 113] | 1000 to 10000 | 1030 |
| CC(=O)c1ccc(-c2cc(Nc3cccc4c3CCN(S(C)(=O)=O)C4)ccc2C)cc1 [Compound 114] | 100 to 1000 | – |
| Cc1ccc(Nc2cccc3c2CCN(S(C)(=O)=O)C3)cc1-c1ccccc1 [Compound 115] | 100 to 1000 | 362 |
| Cc1cc2c(cn1)cc(-c1cc(Nc3cccc4c3CCN(S(C)(=O)=O)C4)ccc1C)c(=O)n2C [Compound 116] | 100 to 1000 | 694 |
| Cc1ccc(Nc2cccc3c2CCN(S(C)(=O)=O)C3)cc1-c1ccc(C(C)C)cc1 [Compound 117] | 100 to 1000 | – |
| Cc1ccc(Nc2cccc3c2CCN(S(C)(=O)=O)C3)cc1-c1ccc(Cn2cccn2)cc1 [Compound 118] | 100 to 1000 | – |
| Cc1ccc(Nc2cccc3c2CCN(S(C)(=O)=O)C3)cc1-c1cccc(C#N)c1 [Compound 119] | 10 to 100 | – |
| Cc1nc(-c2ccc(-c3cc(Nc4cccc5c4CCN(S(C)(=O)=O)C5)ccc3C)cc2)cs1 [Compound 120] | 10 to 100 | – |
| Cc1ccc(Nc2cccc3c2CCN(S(C)(=O)=O)C3)cc1-c1ccc(-c2ccco2)cc1 [Compound 121] | 100 to 1000 | – |
| Cc1ccc(Nc2cccc3c2CCN(S(C)(=O)=O)C3)cc1-c1ccc(F)cc1 [Compound 122] | 100 to 1000 | – |
| Cc1ccc(Nc2cccc3c2CCN(S(C)(=O)=O)C3)cc1Oc1ccccc1 [Compound 123] | 100 to 1000 | 738 |

| SMILES | IC50 [1] [nM] | IC50 [2] [nM] |
| --- | --- | --- |
| Cc1ccc(Nc2cccc3c2CCN(S(C)(=O)=O)C3)cc1-c1cnc(N(C)C)nc1 [Compound 124] | 100 to 1000 | 135 |
| Cc1ccc(Nc2nccc3c2CCN(S(C)(=O)=O)C3)cc1-c1ccc(C#N)cc1 [Compound 125] | 10 to 100 | – |
| CS(=O)(=O)N1CCc2c(cccc2Nc2cc(-c3nc4ccccc4[nH]3)c(Cl)cn2)C1 [Compound 126] | 10 to 100 | – |
| Cc1ccc(Nc2cccc3c2CCN(CC2(C)CC2)C3=O)cc1-c1nc2ccccc2[nH]1 [Compound 127] | 10 to 100 | – |
| Cc1ccc(Nc2cccc3c2CCN(S(C)(=O)=O)C3)cc1-c1cnn(C)c1 [Compound 128] | 100 to 1000 | – |
| Cc1ccc(Nc2cccc3c2CCN(S(C)(=O)=O)C3)cc1-c1ccc(C#N)nc1 [Compound 129] | 10 to 100 | 52 |
| Cc1ccc(Nc2cccc3c2CCN(S(C)(=O)=O)C3)cc1OCc1ccccc1 [Compound 130] | 1 to 10 | – |
| CS(=O)(=O)N1CCc2c(cccc2Nc2ccc(F)c(-c3ccc(C#N)cc3)c2)C1 [Compound 131] | 10 to 100 | – |
| CS(=O)(=O)N1CCc2c(cccc2Nc2cccc(-c3ccc(C#N)cc3)c2)C1 [Compound 132] | 10 to 100 | – |
| CS(=O)(=O)N1CCc2c(ccnc2Nc2ccc(Cl)c(-c3ncc(-c4ccccc4)[nH]3)c2)C1 [Compound 133] | 0.001 to 1 | – |
| CS(=O)(=O)N1CCc2c(cccc2Nc2ccc(Cl)c(-c3ccc(C#N)cc3)c2)C1 [Compound 134] | 10 to 100 | – |
| CNC(=O)c1cccc(-c2cc(Nc3cccc4c3CCN(S(C)(=O)=O)C4)ccc2C)c1 [Compound 135] | 1000 to 10000 | 4180 |
| Cc1ccc(Nc2cccc3c2CCN(S(C)(=O)=O)C3)cc1-c1ccc(C(F)(F)F)cc1 [Compound 136] | 10 to 100 | 90 |
| Cc1ccc(Nc2cccc3c2CCN(S(C)(=O)=O)C3)cc1-c1ccc(OC(F)(F)F)cc1 [Compound 137] | 10 to 100 | – |
| Cc1ccc(Nc2cccc3c2CCN(S(C)(=O)=O)C3)cc1-c1ccc(C(=O)N(C)C)cc1 [Compound 138] | 100 to 1000 | – |
| Cc1ccc(Nc2cccc3c2CCN(S(C)(=O)=O)C3)cc1-c1ccc(CC#N)cc1 [Compound 139] | 100 to 1000 | 101 |
| Cc1ccc(Nc2cccc3c2CCN(S(C)(=O)=O)C3)cc1-c1cccc(C(=O)N2CCCC2)c1 [Compound 140] | 1000 to 10000 | 2940 |
| COC(=O)c1ccc(-c2cc(Nc3cccc4c3CCN(S(C)(=O)=O)C4)ccc2C)cc1 [Compound 141] | 100 to 1000 | – |
| Cc1ccc(Nc2cccc3c2CCN(S(C)(=O)=O)C3)cc1-c1ccc(C(N)=O)cc1 [Compound 142] | 100 to 1000 | – |
| Cc1ccc(Nc2cccc3c2CCN(S(C)(=O)=O)C3)cc1-c1ccc(-c2nnn[nH]2)cc1 [Compound 143] | > 10000 | > 10000 |
| Cc1ccc(Nc2cccc3c2CCN(S(C)(=O)=O)C3)cc1-c1ccc(C(=O)O)cc1 [Compound 144] | 1000 to 10000 | – |
| Cc1ccc(Nc2cccc3c2CCN(S(C)(=O)=O)C3)cc1-c1ccc(C(=O)NCCO)cc1 [Compound 145] | 100 to 1000 | – |
